Literature values, collected in paper PMC11696576, “Next generation thiazolyl ketone inhibitors of cytosolic phospholipase A2 α for targeted cancer therapy” (Nature Communications, 2025).

Molecular target: T1, recombinant human cPLA2α (Homo sapiens, UniProt P47712)
T1 sequence (P47712 1-749): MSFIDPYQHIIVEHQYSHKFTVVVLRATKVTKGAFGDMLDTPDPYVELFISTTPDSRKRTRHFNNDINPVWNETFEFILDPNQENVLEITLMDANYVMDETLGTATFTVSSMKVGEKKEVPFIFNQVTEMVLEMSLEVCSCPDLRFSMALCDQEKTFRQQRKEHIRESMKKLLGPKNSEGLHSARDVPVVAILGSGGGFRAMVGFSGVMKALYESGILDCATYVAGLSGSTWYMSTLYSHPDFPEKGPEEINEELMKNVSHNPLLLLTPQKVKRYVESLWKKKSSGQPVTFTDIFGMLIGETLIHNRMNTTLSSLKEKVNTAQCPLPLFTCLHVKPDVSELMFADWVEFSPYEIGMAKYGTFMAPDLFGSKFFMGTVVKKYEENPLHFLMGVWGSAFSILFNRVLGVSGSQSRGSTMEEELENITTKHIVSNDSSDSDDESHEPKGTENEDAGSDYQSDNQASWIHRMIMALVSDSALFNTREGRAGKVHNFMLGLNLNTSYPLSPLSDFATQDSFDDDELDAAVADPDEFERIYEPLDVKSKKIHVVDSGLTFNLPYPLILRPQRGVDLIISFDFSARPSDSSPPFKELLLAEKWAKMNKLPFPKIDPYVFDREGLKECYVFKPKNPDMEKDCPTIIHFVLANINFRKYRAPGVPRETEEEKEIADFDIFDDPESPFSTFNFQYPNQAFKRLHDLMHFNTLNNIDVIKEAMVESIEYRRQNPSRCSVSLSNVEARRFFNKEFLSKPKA
Design: method as in PMID 25152071
Settings: previously published data ref 19, cited from earlier work

For `CCCCCCCCc1ccc(OCC(=O)c2nc(C(=O)OC)cs2)cc1` [GK470], the “cPLA2α % Inhib” value (0.091 mole fraction) is given as greater than 90% and the “cPLA2α XI(50)” value (XI(50) ± stdev) is given as 0.011 ± 0.005 mole fraction.
